Reference: the supplement of paper PMC10307832

Tests used:
Experiment in all cases: relative viability (nuclei count vs DMSO), 5 days (fraction); higher = more cells survive
Trametinib + Vorinostat = compound: CC(=O)Nc1cccc(-n2c(=O)n(C3CC3)c(=O)c3c(Nc4ccc(I)cc4F)n(C)c(=O)c(C)c32)c1 [Trametinib] + O=C(CCCCCCC(=O)Nc1ccccc1)NO [Vorinostat] (partner 1 µM)
Outline: (§1)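 Values are medians from duplicate plates. Each reflects relative viability, defined as the nuclei count of treated wells over that of vehicle wells. Lung cancer cell lines in 1536-well plates were pin-tool dosed one day after seeding with one drug alone or with a fixed anchor-drug dose plus five library-drug doses (not always all listed) in √10 steps, then fixed, stained and imaged at 4× after 5 days.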

[1] = compound: CN1C=C(C2=CC=CC=C21)/C=C\3/C4=C(C=CC=N4)NC3=O + CS(=O)(=O)CCNCc1ccc(-c2ccc3ncnc(Nc4ccc(OCc5cccc(F)c5)c(Cl)c4)c3c2)o1 [Lapatinib] (partner 2 µM)
Outline: as §1

[2] = compound: CN1C=C(C2=CC=CC=C21)/C=C\3/C4=C(C=CC=N4)NC3=O + Cc1nc(Nc2ncc(C(=O)Nc3c(C)cccc3Cl)s2)cc(N2CCN(CCO)CC2)n1 [Dasatinib] (partner 0.075 µM)
Outline: as §1

[3] = compound: CN1C=C(C2=CC=CC=C21)/C=C\3/C4=C(C=CC=N4)NC3=O + O=C(CCCCCCC(=O)Nc1ccccc1)NO [Vorinostat] (partner 1 µM)
Outline: as §1

Row | Cell Line | relative viability (Trametinib + Vorinostat; first compound 0.0025 µM) | relative viability (Trametinib + Vorinostat; first compound 0.007906 µM) | relative viability (Trametinib + Vorinostat; first compound 0.025 µM) | relative viability (Trametinib + Vorinostat; first compound 0.07906 µM) | relative viability (Trametinib + Vorinostat; first compound 0.25 µM) | relative viability ([1]; first compound 0.02 µM) | relative viability ([1]; first compound 0.06325 µM) | relative viability ([1]; first compound 0.2 µM) | relative viability ([1]; first compound 0.6325 µM) | relative viability ([1]; first compound 2 µM) | relative viability ([2]; first compound 0.02 µM) | relative viability ([2]; first compound 0.06325 µM) | relative viability ([2]; first compound 0.2 µM) | relative viability ([2]; first compound 0.6325 µM) | relative viability ([2]; first compound 2 µM) | relative viability ([3]; first compound 0.02 µM) | relative viability ([3]; first compound 0.06325 µM) | relative viability ([3]; first compound 0.2 µM) | relative viability ([3]; first compound 0.6325 µM) | relative viability ([3]; first compound 2 µM)
1 | NCI-H322M | 0.797 | 0.691 | 0.62 | 0.557 | 0.555 | 0.566 | 0.631 | 0.597 | 0.548 | 0.631 | 0.239 | 0.254 | 0.236 | 0.248 | 0.264 | 0.855 | 0.821 | 0.712 | 0.904 | 0.828
2 | NCI-H358 | 0.367 | 0.27 | 0.266 | 0.205 | 0.154 | 0.46 | 0.419 | 0.436 | 0.55 | 0.446 | 0.145 | 0.166 | 0.174 | 0.186 | 0.198 | 0.764 | 0.535 | 0.672 | 1.21 | 0.51
3 | NCI-H460 | 0.621 | 0.482 | 0.376 | 0.12 | 0.0929 | 1.11 | 1.06 | 1.09 | – | 1.23 | 0.648 | 0.448 | 0.388 | 0.44 | 0.459 | 0.958 | 0.655 | 0.685 | 0.37 | 0.545
4 | NCI-H520 | 0.868 | 0.733 | 0.68 | 0.691 | 0.532 | 0.741 | 0.86 | 0.841 | 0.981 | 0.937 | 0.206 | 0.213 | 0.199 | 0.182 | 0.221 | 0.797 | 0.482 | 0.661 | 0.718 | 0.722
5 | NCI-H596 | 0.6 | 0.555 | 0.436 | 0.427 | 0.263 | 1.05 | 1.03 | 0.889 | 1.02 | 0.99 | 0.481 | 0.582 | 0.469 | 0.628 | 0.48 | 0.642 | 0.653 | 0.484 | 0.589 | 0.595
6 | NCI-H647 | 0.634 | 0.562 | 0.642 | 0.465 | 0.196 | 1.06 | 0.995 | 0.679 | 0.949 | 1.27 | 0.208 | 0.176 | 0.105 | 0.143 | 0.167 | 0.498 | 0.529 | 0.676 | 0.524 | 0.531
7 | NCI-H650 | 0.528 | 0.585 | 0.392 | 0.569 | 0.667 | 0.824 | 0.738 | – | 0.754 | 0.82 | 0.519 | 0.494 | – | 0.415 | 0.39 | 0.439 | 0.369 | – | 0.383 | 0.328
8 | NCI-H661 | 0.742 | 0.753 | 0.782 | 0.782 | 0.724 | 0.601 | 0.574 | 0.46 | 0.427 | 0.54 | 0.892 | 0.827 | 0.626 | 0.819 | 0.853 | 0.853 | 0.763 | 0.835 | 0.927 | 0.775
9 | NCI-H727 | 0.961 | 0.851 | 0.424 | 0.387 | 0.382 | 0.757 | 0.688 | 0.428 | 0.914 | 0.767 | 0.332 | 0.372 | 0.365 | 0.332 | 1.12 | 1.02 | 1.21 | 0.903 | 1.23 | 1.35
10 | NCI-H838 | 0.682 | 0.591 | 0.598 | 0.631 | 0.568 | 0.774 | 0.9 | 0.813 | 0.785 | 0.896 | 0.146 | 0.277 | 0.242 | 0.27 | 0.261 | 0.679 | 0.653 | 0.591 | 0.601 | 0.55
11 | NCI-H1355 | 0.605 | 0.524 | 0.341 | 0.377 | 0.291 | 0.952 | 0.784 | 0.7 | 0.637 | 0.646 | 0.671 | 0.586 | 0.571 | 0.399 | 0.502 | 0.581 | 0.581 | 0.653 | 0.513 | 0.534
12 | NCI-H1395 | 0.78 | 0.627 | 0.593 | 0.415 | 0.384 | 0.878 | 1.01 | – | 0.948 | 0.885 | 0.399 | 0.425 | 0.371 | 0.422 | 0.392 | 0.679 | 0.725 | 0.564 | 0.662 | 0.604
13 | NCI-H1437 | 0.813 | 0.642 | 0.516 | 0.447 | 0.377 | 0.837 | 0.842 | 0.708 | 0.841 | 0.938 | 0.411 | 0.416 | 0.3 | 0.455 | 0.479 | 0.955 | 0.823 | 0.857 | 0.804 | 0.71
